From patent publication US10800790B2, “Sesquiterpenoid STAT3 inhibitors” (University of Hawaii, priority 2013, dated 2020)

Legend:
U251 MG cells = test: iTRAQ proteomics with immunoblot validation, U251 MG cells; format: cell-based, human
Procedure: To investigate the possibility that the hirsutinolides could induce global molecular changes in the sensitive malignant cells, lysates were prepared from U251 MG cells untreated or treated with 6 or 22 for 1 h and analyzed by isobaric peptide labeling and nanoLC-MS/MS analysis (iTRAQ) proteomics method (Ross, P. L., et al., Multiplexed protein quantitation in Saccharomyces cerevisiae using amine-reactive isobaric tagging reagents, Mol Cell Proteomics., 2004. 3: p. 1154-69), as described in the Examples section. A search was pursed of the 341,908 mass spectrometry spectra using ProteinPilot (version 4.5; Applied Biosystems) against the National Center for Biotechnology Information non-redundant reference sequence (NCBInr) human database and based on the criteria of choosing only proteins with at least 95% confidence and with a “Local False Discovery Rate” no higher than 5%, as calculated from the slope of the accumulated Decoy database hits by the PSPEP estimation. […]
Cellular samples were prepared according to the Pennsylvania STATe University College of Medicine Mass Spectrometry and Proteomics Core (MSPC) facility (Hershey, Pa.) standard protocol, adapted from the manufacturer's instructions (Applied Biosystems Sciex, Foster City, Calif.), combined with filter-aided sample preparation, as previously reported. […] For iTRAQ analysis (Ross, P. L., et al., Multiplexed protein quantitation in Saccharomyces cerevisiae using amine-reactive isobaric tagging reagents, Mol Cell Proteomics., 2004, 3: p. 1154-69), one hundred micrograms of whole-cell lysates from U251 MG cells untreated (DMSO control) or treated with 5 micromolar of compounds 22 or 6 for 1 h were independently digested, and their corresponding cellular proteins were differently labeled with 114, 115 or 117 tags, respectively, using iTRAQ reagents. […] Protein identification and quantification for iTRAQ samples were carried out using ProteinPilot™ software (version 4.5; Applied Biosystems, MDS-Sciex, Framingham, Mass.). […]

U251MG cells = test: Wound healing assay for migration; format: cell-based, human; conditions: 0-5 micromolar, 19 h, viability unaffected
Procedure: Viable cell numbers at 19 h post-treatment were counted and are represented (right panel). Values are the mean and S.D. of 3-4 independent determinations. Data are representative of 3 independent determinations.
This assay was performed as previously reported. (Xu, Y., supra). Briefly, subconfluent cultures of U251MG cells in 6-well plates were wounded using pipette tips and treated with compound or vehicle (DMSO) and allowed to migrate into the denuded area over a 19 h period. The migration of cells was visualized at a 10× magnification using an Axiovert 200 inverted fluorescence microscope (Zeiss), with pictures taken using a mounted Canon Powershot A640 digital camera.

pSTAT5 = test: Immunoblotting of EGF-induced pSTAT5 in NIH3T3/hEGFR; conditions: 5 micromolar
Procedure: To determine the specificity of agents, mouse fibroblasts over-expressing the human EGF receptor (NIH3T3/hEGFR) were treated with the compounds and stimulated with EGF.
(A-C) SDS-PAGE and Western blotting analysis of whole-cell lysates of equal total protein prepared from (A) EGF-stimulated NIH3T3/hEGFR cells pre-treated with the 5 micromolar of the designated agents for 24 h and probing for pY705STAT3, STAT3, pY701 STAT1, STAT1, pY694STAT5, STAT5 or GAPDH, or the human glioma, U251MG cells treated with 5 micromolar of the designated inhibitors for (B) 0-32 h and probing for pS-Akt, Akt, pErk1/2, Erk1/2, pJAK2, JAK2, SOCS3, PTP1B, pSTAT3, STAT3, β-actin or GAPDH; or (C) 3 h in the absence or presence of increasing concentration of Na3VO4 and probing for pSTAT3, STAT3 or GAPDH/.

[1] = system: GSH levels in U251 MG cells; test: Glutathione (GSH) levels in U251 MG cells
Procedure: Reduced glutathione (GSH) and oxidized glutathione disulfide (GSSG) levels were assayed using a commercially available kit (Cayman Chemical, Ann Arbor, Mich.) and following the manufacturer's instructions.

[2] = biological target: T1, STAT3 (NIH3T3/v-Src nuclear extracts) (Mus musculus, UniProt P42227); test: In vitro STAT3 DNA-binding activity/EMSA, nuclear extracts incubated with compound; format: biochemical; conditions: 5 micromolar, 30 min at room temperature
T1 construct: nuclear extracts prepared from v-Src-transformed mouse fibroblasts (NIH3T3/v-Src) containing active STAT3; endogenous in cells; host or cells: NIH3T3/v-Src mouse fibroblasts (nuclear extract)
T1 sequence (P42227 whole entry): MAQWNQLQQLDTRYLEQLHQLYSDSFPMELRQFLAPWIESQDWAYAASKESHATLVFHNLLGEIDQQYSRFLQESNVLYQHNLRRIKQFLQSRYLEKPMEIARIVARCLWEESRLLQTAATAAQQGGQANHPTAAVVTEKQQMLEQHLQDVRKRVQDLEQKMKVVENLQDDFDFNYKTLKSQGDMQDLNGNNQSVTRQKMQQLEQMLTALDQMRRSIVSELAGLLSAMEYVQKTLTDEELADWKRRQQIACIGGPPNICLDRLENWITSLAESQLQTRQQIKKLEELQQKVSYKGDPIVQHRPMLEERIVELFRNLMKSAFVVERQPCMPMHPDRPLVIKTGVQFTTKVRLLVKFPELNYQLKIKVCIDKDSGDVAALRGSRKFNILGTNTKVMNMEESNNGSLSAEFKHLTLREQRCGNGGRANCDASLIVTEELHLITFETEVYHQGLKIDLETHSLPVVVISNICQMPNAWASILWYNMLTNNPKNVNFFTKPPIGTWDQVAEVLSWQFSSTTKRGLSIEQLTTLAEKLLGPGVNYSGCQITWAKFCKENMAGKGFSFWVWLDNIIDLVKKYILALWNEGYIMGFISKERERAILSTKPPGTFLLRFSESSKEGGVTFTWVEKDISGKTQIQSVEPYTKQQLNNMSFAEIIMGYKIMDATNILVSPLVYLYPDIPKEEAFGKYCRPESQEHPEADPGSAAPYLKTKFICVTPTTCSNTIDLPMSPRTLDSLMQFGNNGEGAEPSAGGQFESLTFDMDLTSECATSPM
Procedure: To further determine the effects of the bioactive agents on STAT3 activity, nuclear extracts prepared from v-Src-transformed mouse fibroblasts (NIH3T3/v-Src) containing active STAT3 were directly incubated with 5 micromolar compounds for 30 min at room temperature prior to performing STAT3 DNA-binding activity in vitro with EMSA analysis. […] These studies indicate that agents directly interact with STAT3 and disrupt STAT3:STAT3 dimers, thereby inhibiting its DNA-binding activity.
Data are representative of 2-3 independent determinations.
Nuclear extract preparations and DNA-binding/electrophoretic mobility shift assay (EMSA) were carried out as previously described (Xu, supra). Nuclear extract preparations and DNA-binding activity/electrophoretic mobility shift assay (EMSA) were carried out as previously described. U251 MG and MDA-MB-231 cells culture were pretreated with different concentrations of the compounds for the indicated period and then harvested for nuclear extract preparation and DNA-binding assay with EMSA analysis. The ^32P-labeled oligonucleotide probe used was hSIE (high-affinity sis-inducible element) from the c-fos gene, m67 variant (5′-[…]-3′) that binds STAT3. Except where indicated, nuclear extracts were pre-incubated with compound for 30 min at room temperature prior to incubation with the radiolabeled probe for 30 min at 30° C. before subjecting to EMSA analysis. Where appropriate, bands corresponding to DNA-binding activities were scanned and quantified for each concentration of compound using ImageJ and plotted as percent of control (vehicle) against concentration of compound, from which the IC50 values were derived.

[3] = system: pY705STAT3 in U251MG or MDA-MB-231 cells; test: Immunoblotting of pY705STAT3 in treated tumor cells
Procedure: Positions of STATs:DNA complexes or proteins in gel are labeled; control lanes (0) represent nuclear extracts or whole-cell lysates prepared from 0.05% DMSO-treated cells. Data are representative of at least three to four independent determinations.
Lysates of equal total protein prepared in the lysis buffer (50 mM Hepes, pH 7.5, 150 mM NaCl, 2 mM EDTA, 1% Triton X-100, 0.1% SDS), were subjected to IP or Western blotting analysis. Antibodies against STAT3, pY705STAT3, Src, pY416Src, Erk1/2, and pT202/Y204Erk1/2 and GAPDH (Cell Signaling Technology, Danvers, Mass.), and anti-β-actin, and HSP105 (Santa Cruz Biotechnology, Dallas, Tex.) are from the designated sources.
Whole-cell lysates were prepared in boiling SDS sample loading buffer to extract total proteins, as reported previously. […] Nitrocellulose membranes were probed with primary antibodies, and the detection of horseradish peroxidase-conjugated secondary antibodies by enhanced chemiluminescence (Amersham) was performed. Antibodies used were monoclonal anti-pYSTAT3 and anti-STAT3 antibodies (Cell Signaling Technology, Danvers, Mass.).

Inhibition of STAT3 DNA-binding activity in vitro (EMSA) [2]: strong inhibition
Substance: (4S,6R,E)-4,7-dihydroxy-6,10-dimethyl-2-oxo-2,4,5,6,7,8,9,10-octahydro-7,10-epoxycyclodeca[b]furan-3-yl)methyl(E)-2-methylbut-2-enoate [Compound 22]
Expression of GCN1 (immunoblot) (U251 MG cells; U251MG): reduced expression
Importin subunit α-2 up (U251 MG cells; iTRAQ, 5 micromolar, 1 h): 2 fold
MAP1B down (U251 MG cells; iTRAQ, 5 micromolar, 1 h): ~2 fold
Cell migration into the denuded area (U251MG cells): suppressed the numbers of U251 cells migrating into the denuded area
Effect on EGF-induced pSTAT5 (pSTAT5): no effects
Effect on GSH levels [1]: did not repress GSH levels
Effect on pY705STAT3 / STAT3 activity (immunoblot), in words ([3]; 5 micromolar, 0-24 h, U251MG or MDA-MB-231, Table 1/FIG. 2 numbering): early inhibition at 15-30 min
pY705STAT3 inhibition in combination with sodium orthovanadate ([3]; U251MG, 5 micromolar compound, 10-300 micromolar orthovanadate, 3 h): failed to overcome the inhibitory effect
